{"source": "patent US11339124B2", "about": "“3-(benzylamino)-4-(cyclohexylamino)-n-(2-(piperazin-1-yl)ethyl)benzenesulfonamide derivatives and related ferrostatin-1 analogues as cell death inhibitors for treating e.g. stroke” (VIB VZW, priority 2018, dated 2022)", "key": {"[1]": {"assay": "Tissue distribution in rats 24 h after iv dose", "type": "in vivo", "conditions": "rat, 5 mg/kg iv; for concentration at 24 h: male, Wistar, iv", "experimental": "To assess the extent of tissue distribution of compound 39, various organs (liver, kidney and lungs) of all three rats were collected on ice at necropsy 24 hours after administration before being homogenized and analyzed.\nEach rat received an iv dose at 5 mg/kg and the internal organs were collected at narcopsy at 24 h. The organs were homogenized and further processed by protein precipitation (n=3) and centrifugation. Analysis of the samples was conducted by LC-MS.\nTissues (liver, kidneys and lungs) were collected on ice at necropsy at 24 h (after prior exsanguination), homogenized using a gentle MACS™ Dissociator and stored at −80° C. until analysis. The tissue samples for LC-MS were further processed by protein precipitation (n=3) by diluting 20 μL of the homogenate with 80 μL ACN containing IS (tolbutamide). After centrifugation, the supernatant was further diluted in the appropriate solvent."}, "[2]": {"assay": "In vivo pharmacokinetics, single iv administration to male Wistar rats (blood concentration)", "parameters": "species or system rat", "conditions": "5 mg/kg iv", "experimental": "In order to estimate how these in vitro ADME parameters correlate to an in vivo setting, compound 39 was selected for a single intravenous (iv) administration to three male Wistar rats at a dose of 5 mg/kg. Blood samples were obtained at various time points. (0.083, 0.25, 0.5, 1, 2, 4, and 24 h) The concentration of 39 was determined using UPLC analysis coupled with tandem quadrupole mass spectrometry. […] Only in 1 sample a concentration of […] was determined 5 minutes after dosing.\nMale Wistar rats (BW˜250 g; Janvier France) were housed individually and randomly allocated to groups of 3 animals each based on body weight. The animals were fasted overnight until 4 hours after dosing. Drinking water remained available ad libitum.\nThe test compound were kept at 4° C. until formulation. The compound was formulated in PEG200 at 10 mg/ml. The test formulation was prepared by LMPH and stored at room temperature.\nBlood was collected from sublingual vein using capillary tubes under isoflurane anaesthesia. The blood was dropped (15 μL) on Whatman® FTA® DMPK B cards, dried at room temperature for at least 2 hours and further processed for analysis. A 6 mm disk was punched from the blood spot center, extracted in 75:25 ACN:H2O containing tolbutamide as internal standard (IS). […] The optimal DBS protocol (FTA DMPK-A or B card, extraction solvent) was determined in a preliminary experiment."}, "[3]": {"conditions": "after 24 h, one value per rat, Hydrochloride, 5 mg/kg"}}, "note": "Several values for one entry are separate records, joined by “and”; a condition that tells them apart may be missing. Equal values may be shown once. Read-outs that look alike come from different tables or passages of the source. Marks after values point to notes of the source that are not given here.", "data": [{"smiles": "Cl.O=S(=O)(NCCN1CCNCC1)c1ccc(NC2CCCCC2)c(NCc2ccccc2)c1", "note": "[Compound 39, 3-(benzylamino)-4-(cyclohexylamino)-N-(2-(piperazin-1-yl)ethyl)benzenesulfonamide Hydrochloride]", "values": [{"measurement": "concentration at 24 h", "setting": "[1]; kidney, 5 mg/kg, after 24 h, one value per rat, read-out: Tissue distribution, Kidney", "value": 200, "unit": "ng/g"}, {"measurement": "concentration at 24 h", "setting": "[1]; liver, 5 mg/kg, after 24 h, one value per rat, read-out: Tissue distribution, Liver", "value": 230, "unit": "ng/g"}, {"measurement": "concentration at 24 h", "setting": "[1]; lung, 5 mg/kg, after 24 h, one value per rat, read-out: Tissue distribution, Lung", "value": 480, "unit": "ng/g"}, {"measurement": "Concentrations in all analyzed tissues (liver, kidney, lungs)", "setting": "[1]; 24 hours after administration", "value": "Significant concentrations"}, {"measurement": "Tissue distribution, Kidney", "setting": "[1]; [3]", "value": "0.35 mg/kg organ and 0.38 mg/kg organ"}, {"measurement": "Tissue distribution, Liver", "setting": "[1]; [3]", "value": "0.22 mg/kg organ and 0.15 mg/kg organ"}, {"measurement": "Tissue distribution, Lung", "setting": "[1]; [3]", "value": "0.19^a mg/kg organ and 0.53 mg/kg organ"}, {"measurement": "Plasma concentration (below detection limit in nearly all samples)", "setting": "[2]; 0.083-24 h", "value": "< 53.1", "unit": "ng/mL"}, {"measurement": "Plasma concentration in 1 sample", "setting": "[2]; 5 minutes after dosing", "value": 19.6, "unit": "ng/mL"}]}]}
